Measurements taken from patent US12448399B2, “Cereblon-based KRAS degrading PROTACs and uses related thereto” (Arvinas Operations, Inc., priority 2023, dated 2025).

Target: T1, KRas-G12D (Homo sapiens, UniProt P01116, G12D)
T1 construct: insert the HiBiT tag onto the N-terminus of one or more of the endogenous KRas alleles; host or cells: AsPC-1 HiBiT-KRasG12D knock-in clone (one tagged allele, two untagged KRasG12D alleles)
Test: HiBiT Degradation Assay (G12D), AsPC-1 HiBiT-KRasG12D cells, 24 hr
Type: cell-based
Conditions: for Dmax: ASPC1, AsPC-1 cells, maximum degradation observed; for DC50: AsPC-1 cells
In short: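 AsPC-1 cells with CRISPR N-terminal HiBiT knock-in on one endogenous KRasG12D allele, treated 24 hr at 37° C with compound titrations in 0.5% DMSO. Lytic HiBiT luminescence normalized to DMSO, fitted to a 4-parameter model for DC50 and Dmax. Parallel alamar blue (4 hr) checked viability.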

T1 sequence (P01116 1-188 isoform P01116-2 G12D): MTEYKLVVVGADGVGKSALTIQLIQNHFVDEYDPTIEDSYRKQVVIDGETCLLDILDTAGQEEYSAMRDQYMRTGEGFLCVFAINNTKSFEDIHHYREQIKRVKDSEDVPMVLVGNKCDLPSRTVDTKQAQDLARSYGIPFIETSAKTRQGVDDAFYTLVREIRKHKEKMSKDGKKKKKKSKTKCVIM

DC50 [nM]	SMILES	Dmax [%]
< 5100	C#Cc1c(F)ccc2cc(O)cc(-c3ncc4c(N5CC6CCC(C5)N6)nc(OCCN5CCC6(CC5)CN(CC5CCN(c7cc(C)c8c(c7F)CN(C7CCC(=O)NC7=O)C8=O)CC5)C6)nc4c3F)c12 (stereo not shown) [Compound 150]	–
250 to 1000	C#Cc1c(F)ccc2cc(O)cc(-c3ncc4c(N5CC6CCC(C5)N6)nc(OC[C@@H]5CC[C@@H](COC(=O)N6CCN(c7cccc8c7CN(C7CCC(=O)NC7=O)C8=O)CC6)N5C)nc4c3F)c12 (stereo partly drawn) [Compound 117, [(2S,5S)-5-{[(4-{3,8-diazabicyclo[3.2.1]octan-3-yl}-7-(8-ethynyl-7-fluoro-3-hydroxynaphthalen-1-yl)-8-fluoropyrido[4,3-d]pyrimidin-2-yl)oxy]methyl}-1-methylpyrrolidin-2-yl]methyl 4-[2-(2,6-dioxopiperidin-3-yl)-1-oxo-2,3-dihydro-1H-isoindol-4-yl]piperazine-1-carboxylate]	–
100 to 5250	CCc1cccc2cc(O)cc(-c3ncc4c(N5CC6CCC(C5)N6)nc(OCCN5CCC(CN6CC7(C6)CN(c6ccc8c(c6)C(=O)N(C6CCC(=O)NC6=O)C8=O)C7)CC5)nc4c3F)c12 (stereo not shown) [Compound 1]	–

The next lines start with the compound.

SMILES	DC50 [nM]	Dmax [%]
CCc1cccc2cc(O)cc(-c3ncc4c(N5CC6CCC(C5)N6)nc(OCCN5CCN(CC6CCN(c7ccc(F)c(C(=O)NC8CCC(=O)NC8=O)c7)CC6)CC5)nc4c3F)c12 (stereo not shown) [Compound 17]	250 to 1000	≤ 25
C#Cc1c(F)ccc2cc(O)cc(-c3ncc4c(N5CC6CCC(C5)N6)nc(OCC5(CN6CCC(CN7CCN(c8ccc9c(c8)n(C)c(=O)n9C8CCC(=O)NC8=O)CC7)CC6)CC5)nc4c3F)c12 (stereo not shown) [Compound 189, 3-{5-[4-({1-[(1-{[(4-{3,8-diazabicyclo[3.2.1]octan-3-yl}-7-(8-ethynyl-7-fluoro-3-hydroxynaphthalen-1-yl)-8-fluoropyrido[4,3-d]pyrimidin-2-yl)oxy]methyl}cyclopropyl)methyl]piperidin-4-yl}methyl)piperazin-1-yl]-3-methyl-2-oxo-2,3-dihydro-1H-1,3-benzodiazol-1-yl}piperidine-2,6-dione]	< 5100	> 70
C#Cc1c(F)ccc2cc(O)cc(-c3ncc4c(N5CC6CCC(C5)N6)nc(OC[C@@H](C)N5CCC(CC6CCN(CC7CCN(c8ccc9c(c8)n(C(C)C)c(=O)n9C8CCC(=O)NC8=O)CC7)CC6)CC5)nc4c3F)c12 (stereo partly drawn) [Compound 184, 3-[5-(4-{[4-({1-[(2R)-1-[(4-{3,8-diazabicyclo[3.2.1]octan-3-yl}-7-(8-ethynyl-7-fluoro-3-hydroxynaphthalen-1-yl)-8-fluoropyrido[4,3-d]pyrimidin-2-yl)oxy]propan-2-yl]piperidin-4-yl}methyl)piperidin-1-yl]methyl}piperidin-1-yl)-2-oxo-3-(propan-2-yl)-2,3-dihydro-1H-1,3-benzodiazol-1-yl]piperidine-2,6-dione]	< 5100	> 70
CCc1cccc2cc(O)cc(-c3ncc4c(N5CC6CCC(C5)N6)nc(OCCN5CCC(Cn6cccc(CN7CCC(=O)NC7=O)c6=O)CC5)nc4c3F)c12 [Compound 16]	> 1000	–
C#Cc1c(F)ccc2cc(O)cc(-c3ncc4c(N5CC6CCC(C5)N6)nc(OCCN5CCC(CC6CCN(c7cccc8c7n(C)c(=O)n8C7CCC(=O)NC7=O)CC6)CC5)nc4c3F)c12 (stereo not shown) [Compound 129, 3-(4-{4-[(1-{2-[(4-{3,8-diazabicyclo[3.2.1]octan-3-yl}-7-(8-ethynyl-7-fluoro-3-hydroxynaphthalen-1-yl)-8-fluoropyrido[4,3-d]pyrimidin-2-yl)oxy]ethyl}piperidin-4-yl)methyl]piperidin-1-yl}-3-methyl-2-oxo-2,3-dihydro-1H-1,3-benzodiazol-1-yl)piperidine-2,6-dione]	< 5100	> 70
CCc1cccc2cc(O)cc(-c3ncc4c(N5CC6CCC(C5)N6)nc(OCCN5CCOC(CN6CCN(CC7CCN(c8ccc9c(c8)C(=O)N(C8CCC(=O)NC8=O)C9=O)CC7)CC6)C5)nc4c3F)c12 (stereo not shown) [Compound 21]	250 to 1000	–
